# Measurements: patent US20100056524A1, “Compound” (priority 2008, published 2010)
# Structures can show the parent of a compound that is named as a salt.
# Molecular target: T1, TBK1 (Homo sapiens, UniProt Q9UHD2)
# T1 construct: All protein kinases were of human origin and encoded full length proteins, unless indicated otherwise; His6; made in house; host or cells: insect Sf21 cells
# T1 sequence (Q9UHD2 1-729): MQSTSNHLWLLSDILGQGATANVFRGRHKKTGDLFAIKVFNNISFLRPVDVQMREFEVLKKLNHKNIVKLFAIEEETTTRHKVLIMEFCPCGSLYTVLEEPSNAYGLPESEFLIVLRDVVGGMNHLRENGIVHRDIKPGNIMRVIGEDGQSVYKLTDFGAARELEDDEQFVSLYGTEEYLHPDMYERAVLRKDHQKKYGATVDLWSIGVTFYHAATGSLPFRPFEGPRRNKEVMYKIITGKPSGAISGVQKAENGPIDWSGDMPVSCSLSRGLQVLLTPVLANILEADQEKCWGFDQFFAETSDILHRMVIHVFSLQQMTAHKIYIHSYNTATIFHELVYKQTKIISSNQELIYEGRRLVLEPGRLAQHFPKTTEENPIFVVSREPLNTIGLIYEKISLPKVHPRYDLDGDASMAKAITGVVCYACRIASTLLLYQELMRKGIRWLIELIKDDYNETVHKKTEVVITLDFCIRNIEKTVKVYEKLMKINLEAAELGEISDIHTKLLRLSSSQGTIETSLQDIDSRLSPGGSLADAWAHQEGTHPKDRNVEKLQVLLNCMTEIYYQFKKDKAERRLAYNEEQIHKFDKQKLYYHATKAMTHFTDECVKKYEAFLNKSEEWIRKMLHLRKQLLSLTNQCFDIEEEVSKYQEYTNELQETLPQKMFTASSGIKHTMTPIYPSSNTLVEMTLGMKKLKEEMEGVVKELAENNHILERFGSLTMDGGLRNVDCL
# Test: TBK1 protein kinase assay ([γ-33P]ATP, P81 filterplates)
# Format: biochemical
# Details: 50 μM ATP; read-out: Potency (TBK1 IC50 potency score)
# Summary of the method: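 Human TBK1 assayed for 30 min with peptide substrate (300 μM), 50 μM [γ-33P]ATP and 10 mM magnesium acetate in 50 mM Tris/HCl pH 7.5, 0.1 mM EGTA, 0.1% 2-mercaptoethanol. Stopped with orthophosphoric acid and counted on P81 filters. IC50 from 10 compound concentrations.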
row,SMILES,IC50 [nM]
1,"O=C(NCCCNc1nc(Nc2ccc(N3CCOCC3)nc2)ncc1C1CC1)C1CCC1 [Example 93, Cyclobutanecarboxylic acid {3-[5-cyclopropyl-2-(6-morpholin-4-yl-pyridin-3-ylamino)-pyrimidin-4-ylamino]-propyl}-amide]",< 100
2,"O=C(O)Cc1cccc(Nc2ncc(C3CC3)c(NCCCNC(=O)C3CCC3)n2)c1 [Example 95, (3-{4-[3-(Cyclobutanecarbonyl-amino)-propylamino]-5-cyclopropyl-pyrimidin-2-ylamino}-phenyl)-acetic acid. Hydrochloride]",< 100
3,"O=C(NCCCNc1nc(Nc2ccc3nc[nH]c3c2)ncc1C1CC1)C1CCC1 [Example 96, Cyclobutanecarboxylic acid {3-[2-(3H-benzimidazol-5-ylamino)-5-cyclopropyl-pyrimidin-4-ylamino]-propyl}-amide]",< 100
4,"O=C(NCCCNc1nc(Nc2ccc(I)nc2)ncc1C1CC1)C1CCC1 [Example 98, Cyclobutanecarboxylic acid {3-[5-cyclopropyl-2-(6-iodo-pyridin-3-ylamino)-pyrimidin-4-ylamino]-propyl}-amide]",< 100
5,"O=C(NCCCNc1nc(Nc2ccc(Cl)nc2)ncc1C1CC1)C1CCC1 [Example 99, Cyclobutanecarboxylic acid {3-[2-(6-chloro-pyridin-3-ylamino)-5-cyclopropyl-pyrimidin-4-ylamino]-propyl}-amide]",< 100
6,"CN(CCN1CCOCC1)c1ccc(Nc2ncc(C3CC3)c(NCCCNC(=O)C3CCC3)n2)cn1 [Example 102, Cyclobutanecarboxylic acid [3-(5-cyclopropyl-2-{6-[methyl-(2-morpholin-4-yl-ethyl)-amino]-pyridin-3-ylamino}-pyrimidin-4-ylamino)-propyl]-amide]",< 100
7,"O=C(NCCCNc1nc(Nc2ccc(CO)nc2)ncc1C1CC1)C1CCC1 [Example 103, Cyclobutanecarboxylic acid {3-[5-cyclopropyl-2-(6-hydroxymethyl-pyridin-3-ylamino)-pyrimidin-4-ylamino]-propyl}-amide]",< 100
8,"O=C(NCCCNc1nc(Nc2ccc(CN3CCOCC3)nc2)ncc1C1CC1)C1CCC1 [Example 104, Cyclobutanecarboxylic acid {3-[5-cyclopropyl-2-(6-morpholin-4-ylmethyl-pyridin-3-ylamino)-pyrimidin-4-ylamino]-propyl}-amide]",< 100

# More lines, now with the values ahead:
row,IC50 [nM],SMILES
1,< 100,"O=C1NCc2cc(Nc3ncc(C4CC4)c(NCCCNC(=O)C4CCC4)n3)ccc21 [Example 90, Cyclobutanecarboxylic acid {3-[5-cyclopropyl-2-(1-oxo-2,3-dihydro-1H-isoindol-5-ylamino)-pyrimidin-4-ylamino]-propyl}-amide. Trifluoroacetic acid salt]"
2,< 100,"CN1CCN(c2cccc(Nc3ncc(C4CC4)c(NCCCNC(=O)C4CCC4)n3)c2)CC1 [Example 91, Cyclobutanecarboxylic acid (3-{5-cyclopropyl-2-[3-(4-methyl-piperazin-1-yl)-phenylamino]-pyrimidin-4-ylamino}-propyl)-amide. Trifluoroacetic acid salt]"
3,100 to 1000,"O=C(NCCCNc1nc(Nc2cccc(-c3nnn[nH]3)c2)ncc1C1CC1)C1CCC1 [Example 94, Cyclobutanecarboxylic acid (3-{5-cyclopropyl-2-[3-(2H-tetrazol-5-yl)-phenylamino]-pyrimidin-4-ylamino}-propyl)-amide]"
4,< 100,"O=C(NCCCNc1nc(Nc2ccc(Br)nc2)ncc1C1CC1)C1CCC1 [Example 97, Cyclobutanecarboxylic acid {3-[2-(6-bromo-pyridin-3-ylamino)-5-cyclopropyl-pyrimidin-4-ylamino]-propyl}-amide]"
5,< 100,"CN(C)CCN(C)c1ccc(Nc2ncc(C3CC3)c(NCCCNC(=O)C3CCC3)n2)cn1 [Example 100, Cyclobutanecarboxylic acid [3-(5-cyclopropyl-2-{6-[(2-dimethylamino-ethyl)-methyl-amino]-pyridin-3-ylamino}-pyrimidin-4-ylamino)-propyl]-amide]"
6,100 to 1000,O=C(NCCCOc1nc(Nc2cccc(F)c2)ncc1C1CC1)C1CCC1 [Example 105]
